Data reported in US5916924A, “Remedies for liver diseases” (Meiji Milk Products Co., Ltd., priority 1997, dated 1999).
Structures can show the parent of a compound that is named as a salt. Where two headings read alike, the source gives them in different places.

Legend:
[1] = tested on: mice (ICR, female); assay: Acute Toxicity Test; assay type: in vivo; conditions: intraperitoneal
Experimental: The pH was adjusted to 7.0 by use of 5N NaOH. Solutions having lower concentrations were prepared by dilution with physiological saline. Each solution (10 μl) was intraperitoneally injected to mice (ICR, female, 6-weeks old, 29 g), and the survival ratio was obtained.

[2] = tested on: liver disorder induced by carbon tetrachloride; assay: GOT and GPT tests in mice with liver disorder induced by carbon tetrachloride; assay type: in vivo, ddY mice
Experimental: Carbon tetrachloride (5 ml, Wako Pure Chemicals) was put in a glass vial, and Panasate 800 (45 ml, Nippon Yushi Chemicals Co, Ltd.) was added to prepare a 10% (v/v) solution.
Subsequently,the total amount was made to 50 ml. An aliquot of 2 ml was diluted in 38 ml of physiological saline.
One group consisted of 10 mice. For 24 hours prior to the administration of tetrachloride, each mouse was fasted by being fed water only. 10% carbon tetrachloride/Panasate solution was intraperitoneally administered to each mice at a dose of 1 ml/kg.
Blood was collected from the abdominal aorta by use of 1-ml disposable syringes (Terumo). The blood, dispensed into 1.5 ml Eppendorf tubes, was subjected to centrifugal separation at 5,000 rpm for 10 minutes to thereby obtain serum. The activity of transaminase (GOT, GPT) in the serum thus obtained was measured. The measurement was performed by use of a Cobas Mira System (Baxter).

[3] = tested on: rat hepatocyte system in primary culture
Experimental: In separation and identification of the low molecular weight factor showing hepatocyte proliferation promoting activity derived from epithelial mucosa of the bovine small intestine, the rat hepatocyte system in primary culture was used. To this culture system, a fraction of a crude extract of bovine small intestine epithelial mucosa in the course of purification was added in the presence of high molecular weight factor extract (1%) and insulin (10 μg/ml) or in the presence of EGF (20 ng/ml) and insulin (10 μg/ml), to thereby establish an assay system for measuring the uptake of ^3 H-TdR into DNA of rat hepatocyte nuclei.
Fractions each amounting 15 ml was added to the above-mentioned assay system and the uptake of ^3 H-TdR was measured.

[4] = intraperitoneal, 2.8 mg/kg, 2 times

| SMILES | Survival ([1]; 0.5 g/kg (as EA), 1 day after admin.) | Survival ([1]; 0.5 g/kg (as EA), 6 days after admin.) | Survival ([1]; 0.5 g/kg (as EA), day of administration) | Survival ([1]; 1.25 g/kg (as EA), 1 day after admin.) | Survival ([1]; 1.25 g/kg (as EA), 6 days after admin.) | Survival ([1]; 1.25 g/kg (as EA), day of administration) | time to death after administration ([1]; 2.5 g/kg) [min] | Survival ([1]; 2.5 g/kg (as EA), day of administration) | time to death after administration ([1]; 5.0 g/kg) [min] | Survival ([1]; 5.0 g/kg (as EA), day of administration) | Survival ([1]; doses equal to or less than 1.25 g/kg, six days) | area of necrosis in histopathological profile of the liver ([2]; 2.8 mg/kg i.p. and 16 mg/kg p.o.) | serum GOT level [2, 4] | serum GPT level [2, 4] | serum GOT level ([2]; peroral, 16 mg/kg, once) | serum GPT level ([2]; peroral, 16 mg/kg, once) | 3H-TdR uptake activity ([3]; in the presence of EGF) | 3H-TdR uptake activity ([3]; in the presence of the high molecular weight factor extract) |
| --- | --- | --- | --- | --- | --- | --- | --- | --- | --- | --- | --- | --- | --- | --- | --- | --- | --- | --- |
| NCCO [EA-HC1, monoethanolamine-HCl] | 4/4 | 4/4 | 4/4 | 3/3 | 3/3 | 3/3 | ≤ 30 | 0/4 | ≤ 30 | 0/4 | alive when six days had passed |  |  |  |  |  |  |  |
| NCCO [ethanolamine, monoethanolamine] |  |  |  |  |  |  |  |  |  |  |  | tendency that the area of necrosis was reduced | significantly decreased | significantly decreased | significantly decreased | significantly decreased | synergistic growth-stimulating effects | synergistic growth-stimulating effects |
